Earlier results as cited in the CATMoS acute toxicity set (Mansouri et al. 2021).
Where “and” joins values, the source holds several entries; their conditions need not be identical. Equal entries are not always repeated.

Experiment: rat acute oral toxicity
Conditions: in vivo

Structure (SMILES) | LD50
O=C(c1ccc(Cl)cc1)c1ccccc1-c1ncc[nH]1 | 600 mg/kg
O=C(Cc1c[nH]c2ccccc12)NN1C(=O)CSC1=S | 432 mg/kg
CC(=O)O[C@H]1C[C@@H]2CC[C@@]1(C)C2(C)C | 9050 mg/kg
C=C(CC)C(=O)c1ccc(OCC(=O)O)c(Cl)c1Cl | 1000 mg/kg
CCOP(=S)(OCC)Oc1cc(C)n(C)c(=O)c1 | 5.97 mg/kg
CC(C)(N)Cc1ccc(Cl)cc1 | 150 mg/kg and 250 mg/kg
COc1ccc([N+](=O)[O-])cc1CNCCO | 30 mg/kg
C=CCc1ccc(OC(C)=O)c(OC)c1 | 1670 mg/kg
COc1cc(OC)cc(OCCO)c1 | 4050 mg/kg
CCCCC(CC)COC(C[n+]1ccccc1)c1ccc(C2CCCC2)cc1 (stereo not drawn) | 250 mg/kg
COCN(C)N=O | 700 mg/kg
COC(C)CC(CC(OC)OC)OC (stereo not drawn) | 4090 mg/kg
C=CC[N+]1(CCC(C)CCCC(C)C)CCCCC1 (stereo not drawn) | 360 mg/kg
O=S(=O)(O)c1cc(Cl)ccc1C=Cc1ccc(-n2nc3cc(S(=O)(=O)O)c4ccccc4c3n2)cc1S(=O)(=O)O | 13700 mg/kg
Cc1cc2[nH]c(C(F)(F)F)nc2cc1Cl | 55 mg/kg
CC(C)Cc1ccc(C(C)C(=O)O)cc1 (stereo not drawn) | 636 mg/kg
CN(C)C(=O)n1c(Br)nc(Br)c1Br | 50 mg/kg
CCOP(=O)(OCC)OC(=C(Cl)Cl)c1cc(Cl)cc(Cl)c1 | 20 mg/kg
C[C@]12CCC(=O)C=C1CC[C@@H]1[C@@H]2[C@@H](O)C[C@@]2(C)[C@H]1CC[C@]2(O)C(=O)COP(=O)(O)O | 6100 mg/kg
O=S(=O)(Cl)c1ccc(Cl)cc1 | 4250 mg/kg
C=CCCC(=O)Cl | 470 mg/kg
COc1cc2ccc(=O)oc2cc1O | 3800 mg/kg
CCN(CC)N=Nc1cccnc1 | 210 mg/kg

Structure (SMILES) | LD50
C=C(C)C(=O)OCC(CCCC)CCCCCC (stereo not drawn) | 26000 mg/kg
CCCCCCCCCCCCCN1CC(C)OC(C)C1 (stereo not drawn) | 650 mg/kg
CCOP(=O)(OCC)N(SN(C)C(=O)ON=C(C)SC)C(C)C | 100 mg/kg
C=COCC(C)CCCC(C)CC(C)C (stereo not drawn) | 1220 mg/kg
Cn1cc(C(O)=Nc2cccc3c2C2CCC3C2=C(Cl)Cl)c(C(F)F)n1 (stereo not drawn) | 55 mg/kg
NC1=NCC2c3ccccc3Cc3ccccc3N12 (stereo not drawn) | 192 mg/kg
COc1ccc2c(c1)OC(C)(C)[C@H](c1ccccc1)[C@H]2c1ccc(OCCN)cc1 | 500 mg/kg
NS(=O)(=O)c1cc(C(=O)O)cc(N2CCCC2)c1Oc1ccccc1 | 5600 mg/kg
CCN1CCCC1CNS(=O)(=O)c1cc(Cl)c(N)cc1OC (stereo not drawn) | 1500 mg/kg
Clc1cc(Cl)c(Cl)cc1Cl | 1500 mg/kg
CS(=O)(=O)OCCN(CCOS(C)(=O)=O)S(C)(=O)=O | 300 mg/kg
COc1ccc([N+](=O)[O-])cc1 | 2300 mg/kg
COP(=S)(OC)SC1CCSc2ccccc21 (stereo not drawn) | 5 mg/kg
CCC1OCC(=NOC(=O)NC)S1 (stereo not drawn) | 60 mg/kg
c1cc2c(cc1C1CCCCC1)c1c3n2CCNC3CCC1 (stereo not drawn) | 3070 mg/kg
O=c1c(Cl)c(Cl)cnn1-c1ccccc1 | 2520 mg/kg
O=C(Cl)c1cccc(S(=O)(=O)Cl)c1 | 1780 mg/kg
CC(=O)OC[C@H]1O[C@@H](n2ncc(=O)[nH]c2=O)[C@H](OC(C)=O)[C@@H]1OC(C)=O | 12000 mg/kg
Cc1ccc(N(CC2=NCCN2)c2cccc(O)c2)cc1 | 1250 mg/kg
Clc1ccc2c(c1)C(N1CCNCC1)=Nc1ccccc1O2 | 313 mg/kg
CCS(=O)CSP(=S)(OC(C)C)OC(C)C (stereo not drawn) | 25 mg/kg
COc1ccc(C(C)=O)cc1 | 1720 mg/kg
ClC1=C(Cl)C2(Cl)C3C4OC4C(Cl)C3C1(Cl)C2(Cl)Cl (stereo not drawn) | 15 mg/kg

Structure (SMILES) | LD50
COC(=O)[C@H]1[C@H]2C[C@@H]3c4[nH]c5cc(OC)ccc5c4CCN3C[C@H]2C[C@H](OC)[C@@H]1OC | 182 mg/kg
CCCCOC(C[n+]1ccccc1)c1ccccc1 (stereo not drawn) | 250 mg/kg
O=C(O)c1cc([N+](=O)[O-])cc([N+](=O)[O-])c1O | 860 mg/kg
CN(C)CCCOC1(Cc2ccccc2)CCCCCC1 | 414 mg/kg
Nc1cc(Cl)c(N)cc1Cl | 1750 mg/kg
Cn1c(=O)c2c(ncn2CCCCCN2CCN(c3ccc(Cl)cc3)CC2)n(C)c1=O | 353 mg/kg
Cc1c(C)c2c(c(C)c1O)CCC(C)(C(=O)O)O2 (stereo not drawn) | 4300 mg/kg
S=c1[nH]c2ccc(Cl)cc2[nH]1 | 150 mg/kg
CC(C)=CCCC(C)CC#N (stereo not drawn) | 5300 mg/kg
CSCCC(O)C(=O)O (stereo not drawn) | 3480 mg/kg
O=C(O)Cc1c(Cl)ccc(Cl)c1Cl | 1780 mg/kg
CN(C)C(=O)Nc1cccc(OC(=O)NC(C)(C)C)c1 | 3000 mg/kg
CC(N)(Cc1ccc(O)c(O)c1)C(=O)O (stereo not drawn) | 5710 mg/kg
O=C(c1ccccc1)c1cccc2c1CCC2C(=O)O (stereo not drawn) | 41.1 mg/kg
OC1(c2cccc(Cl)c2)c2ccccc2C2=NCCN21 (stereo not drawn) | 200 mg/kg
CC(C)=CCCC(C)CC=O (stereo not drawn) | 2420 mg/kg and 7200 mg/kg
COc1ccc(C(=O)CCC(=O)O)c2ccoc12 | 1230 mg/kg
CCC(C)(C)c1ccc(O)c(C(C)(C)CC)c1 | 330 mg/kg
CCCCCC(=O)c1ccc(N)cc1 | 216 mg/kg
CCCOC(=O)OOC(=O)OCCC | 3400 mg/kg
O=C(Nc1c(Cl)c(Cl)c(Cl)c2nc(C(F)(F)F)[nH]c12)c1ccccc1 | 100 mg/kg
Cn1c(=O)sc2cccc(Cl)c21 | 1940 mg/kg
Cn1c(=O)c2c(ncn2CCCN2CCN(CCCSc3ccccc3)CC2)n(C)c1=O | 1600 mg/kg

Structure (SMILES) | LD50
C=C1C(C)(C)C2(Cl)C(Cl)(Cl)C(Cl)(Cl)C1(Cl)C2(Cl)Cl (stereo not drawn) | 40 mg/kg
CCc1ccc2c(c1)C(=O)c1ccccc1C2=O | 2800 mg/kg
CC(=O)c1ccc(N)cc1 | 381 mg/kg
C[C@H](N)Cc1ccccc1 | 38 mg/kg
CCN(CC)CCOCc1cc(Br)ccc1OC | 220 mg/kg
O=C(Cl)C(Br)CBr (stereo not drawn) | 1200 mg/kg
Fc1c(Cl)c(F)c2nc(C(F)(F)F)[nH]c2c1Cl | 1.67 mg/kg
CC(Cl)(Cl)[N+](=O)[O-] | 410 mg/kg
O=C(Oc1ccc(Cl)cc1Cl)N1CCCC1 | 2200 mg/kg
CCCCC(=O)OCC(=O)[C@H]1[C@H](C)C[C@H]2[C@@H]3C[C@H](F)C4=CC(=O)C=C[C@]4(C)[C@@]3(F)[C@@H](O)C[C@@]21C | 3100 mg/kg
F[Si](F)(F)c1ccccc1 | 310 mg/kg
CCC(=O)OCC=Cc1ccccc1 | 3400 mg/kg
O=[N+]([O-])c1nccs1 | 137 mg/kg
O=C(O)Cc1ccc(OCC2CC2)c(Cl)c1 | 895 mg/kg
COc1cc(N)c(C)cc1N(C)C | 29.7 mg/kg
CN(C)CCC(c1ccc(Br)cc1)c1ccccn1 (stereo not drawn) | 318 mg/kg
CCc1c(C)nc2ccccn2c1=O | 1000 mg/kg
CC(=O)C1(O)Cc2c(O)c3c(c(O)c2C(OC2CC(N)C(O)C(C)O2)C1)C(=O)c1c(O)cccc1C3=O (stereo not drawn) | 23 mg/kg
N#Cc1ccc([N+](=O)[O-])cc1C#N | 850 mg/kg
CCCP(=O)(CCC)CCC | 1410 mg/kg
C=C(OP(=O)(OCC)OCC)c1ccc(Cl)cc1Cl | 1530 mg/kg
CCOP(=S)(OCC)Oc1cc(C)c(SC)c(C)c1 | 375 mg/kg
Oc1cc(Cl)c(Br)cc1Cl | 1350 mg/kg

Structure (SMILES) | LD50
FC(Cl)(Cl)c1ccccc1 | 450 mg/kg
O=c1oc2cc(Cl)ccc2n1CO | 2800 mg/kg
O=C1CSc2ncccc2N1 | 1050 mg/kg
CCCCOc1c(Cl)c(Cl)c(Cl)c(Cl)c1Cl | 600 mg/kg
CCCCCOC(C[n+]1ccccc1)c1ccc(C(C)C)cc1 (stereo not drawn) | 250 mg/kg
Cc1ccc2[nH]c(C(F)(F)F)nc2c1[N+](=O)[O-] | 7.75 mg/kg
CCOC(=O)C1=C(C)NC(C)=C(C(=O)OCC)C1c1ccccc1/C=C/C(=O)OC(C)(C)C | 880 mg/kg
COC(=O)N/N=C/c1c[n+]([O-])c2ccccc2[n+]1[O-] | 850 mg/kg
CCCCCCCCCCCCC(Br)C(=O)O (stereo not drawn) | 800 mg/kg
COC(=O)C(C)N(C(=O)c1ccccc1)c1ccc(F)c(Cl)c1 (stereo not drawn) | 1200 mg/kg
O=[N+]([O-])C(CO)(CO)CO | 1900 mg/kg
CCCCCCCCCCCCCCCC(=O)OC/C=C(C)/C=C/C=C(C)/C=C/C1=C(C)CCCC1(C)C | 7910 mg/kg
CCC1NC(=O)c2ccccc2O1 (stereo not drawn) | 1310 mg/kg
CCC(=O)CC(C)CC (stereo not drawn) | 3500 mg/kg
CC(=O)N(CC(C)C(=O)O)c1c(I)cc(I)c(N)c1I (stereo not drawn) | 7100 mg/kg
COC(C)(C)CCCC(C)C(C)O (stereo not drawn) | 4490 mg/kg
CCN(CC)CCOCc1ccc(C)cc1 | 531 mg/kg
N#CS/C=C/SC#N | 77 mg/kg
CCCCC[C@H](O)/C=C/[C@@H]1[C@@H](C/C=C\CCCC(=O)O)[C@@H](O)C[C@H]1O | 1170 mg/kg
C=CCOCC(CC)(CO)CO | 4930 mg/kg
CCC(c1ccccc1)c1c(O)c2ccccc2oc1=O (stereo not drawn) | 200 mg/kg
CO[C@@H]1[C@@H](O[C@@H]2O[C@H](C)[C@@H](O[C@H]3C[C@@](C)(O)[C@@H](OC(=O)CC(C)C)[C@H](C)O3)[C@H](N(C)C)[C@H]2O)[C@@H](CC=O)C[C@@H](C)[C@@H](O)C=CC=CC[C@@H](C)OC(=O)C[C@H]1O | 6990 mg/kg
CC[C@@H](C(=O)[C@@H](C)[C@@H](O)[C@H](C)CCc1ccc(C)c(O)c1C(=O)O)[C@H]1O[C@](CC)([C@H]2CC[C@](O)(CC)[C@H](C)O2)C[C@@H]1C | 122 mg/kg

Structure (SMILES) | LD50
NCC1CC2CCC1C2 (stereo not drawn) | 1410 mg/kg
CCN1C(=O)c2ccccc2C1Nc1ccc(OCCN2CCCCC2)cc1 (stereo not drawn) | 695 mg/kg
CCCCCCCCCCCC[N+](CCO)(CCO)Cc1ccccc1 | 750 mg/kg
CC(C)Oc1cc(-n2nc(C(C)(C)C)oc2=O)c(Cl)cc1Cl | 3500 mg/kg
CNS(=O)(=O)CCNC(=O)N(CCCl)N=O | 40 mg/kg
O=CN(c1ncnc2c1ncn2CC1CC1)C1CC1 | 500 mg/kg
O=C(O)c1ccccc1Nc1cccc(C(F)(F)F)c1 | 249 mg/kg
CCOP(=S)(CCl)Oc1ccc([N+](=O)[O-])cc1 (stereo not drawn) | 127 mg/kg
CC(=O)OC(OC(C)=O)C(Cl)CCl (stereo not drawn) | 320 mg/kg
COC12C(COC(N)=O)C3=C(C(=O)C(C)=C(N)C3=O)N1CC1C2N1C (stereo not drawn) | 68 mg/kg
CC(C)=CCO | 810 mg/kg
Nc1ccc(F)c(F)c1 | 340 mg/kg
ClCCBr | 64 mg/kg
CCCCCCCCCCCCOC(=O)Cc1ccc(N(CCCl)CCCl)cc1 | 72 mg/kg
NCCCOCCCCOCCCN | 3450 mg/kg
O=[N+]([O-])c1cc2[nH]c(C(F)(F)F)nc2c(Cl)c1Cl | 55 mg/kg
O=NN1CCN(N=O)CC1 | 160 mg/kg
COC(=O)C1=C(C)NC(C)=C(C(=O)OC/C=C/c2ccccc2)C1c1cccc([N+](=O)[O-])c1 (stereo not drawn) | 2970 mg/kg
C#CCOP(=O)(OCC(C)C)c1ccccc1 (stereo not drawn) | 600 mg/kg
CCOc1ccc([N+](=O)[O-])cc1CNCCBr | 25 mg/kg
COc1coc(CSP(=O)(OC)OC)cc1=O | 23 mg/kg
COP(=S)(Oc1ccc([N+](=O)[O-])cc1)Oc1ccc([N+](=O)[O-])cc1 | 312 mg/kg
C=CCN(CC=C)c1ccc(OC(=O)NC)cc1 | 86.8 mg/kg
